Key:
Type in all cases: cell-based, human
FcgRIIA on neutrophils [1] = test: FcgRIIA shedding, flow cytometry of neutrophil cell surface FcgRs; settings: for effect on R848 (TLR7/8)-mediated shedding of FcgRIIA on neutrophils: agent added before R848, flow cytometry IV.3; for neutrophil cell surface expression of FcgRIIA after stimulus: flow cytometry, clone IV.3, vs non-stimulated
Text: To determine the mechanism for the TLR-induced reduction in RNP-IC phagocytosis, we analyzed the neutrophil surface expression of FcgRs after exposure to TLR ligand. Neutrophils were activated with R848 and cell surface expression of FcgRs analyzed by flow cytometry. The results were presented as FcgR levels as compared to no R848 added (% of control). The experiment was repeated five (FcgRI), seven (FcgRIII), and twenty-five (FcgRIIA) times; combined results were compared using paired t test (FcgRIIA, P<0.0001; FcgRI, P=0.027; FcgRIII, P=0.0044). […] In this experiment, neutrophils were activated with the TLR7/8 agonist R848 and analyzed for FcgRIIA at different time-points and concentrations. The experiment was repeated four (concentration) and six (kinetics) times; combined results were compared using paired t test (30 min, P=0.0158; 60 min, P<0.0001; 120 min, P=0.0003; 0.125 μg/mL, P=0.0071; 0.25 μg/mL, P=0.0058; 0.5 μg/mL, P=0.0008; 1 μg/mL, P<0.0001; 2 μg/mL, P<0.0001). […] For these experiments, neutrophils were activated with TLR ligands (LPS, 1 μg/mL, PAM3CSK4 (5 μg/mL), CpG DNA (2 μg/mL), Loxoribine (0.1 mM), CL075 (2.5 μg/mL) or R848 (2 μg/mL)) for 60 minutes or 4 hours and analyzed for FcgRIIA, FcgRII or CD11b and CD66b cell surface expression by flow cytometry. Experiments were repeated six (LPS, P=0.0008), eight (CpG DNA, P=0.035; Loxoribine, P<0.0001, and CL075, P<0.0001), ten (PAM3CSK4, P<0.0001) and forty times (R848, P<0.0001); combined results were compared using paired t test. Additional experiments were repeated four and eight times; combined results were compared using paired t test (CD11b: R848, P<0.0001; LPS, P=0.0002; PAM, P<0.0001; CpG DNA, P<0.0001; CD66b: R848, P<0.0001; LPS, P<0.0001; PAM, P<0.0001; CpG DNA, P=0.014).
Neutrophils were activated by LPS (1 μg/mL), R848 (2 μg/mL), PAM3CSK4 (5 μg/mL), Loxoribine (0.1 mM), CL075 (2.5 μg/mL) or CpG DNA (2 μg/mL) for 30 minutes, followed by analysis of cell surface expression of CD32A (IV.3; Stemcell Technologies, FUN-2, BioLegend), CD16 (clone 3G8), CD64 (clone 10.1), and CD66b (all from BioLegend) by flow cytometry. For intracellular staining, neutrophils were fixed in 2% paraformaldehyde for 10 minutes, permeabilized with saponin (diluted 1:1000 in PBS) for 15 minutes and stained with anti-CD32A antibodies diluted 1:100. In some experiments, neutrophils were incubated with inhibitors (DPI (25 μM, Sigma), apocynin (100 μM, Sigma), GM-6001 (10 μM, Enzo Life Sciences), LY294002 (10 μM), cOmplete Protease Inhibitor Cocktail Tablets (1× dissolved in H2O, Roche), neutrophil elastase IV inhibitor (25 μM, Calbiochem), E-64 (1 μM, Sigma), 4-(2-Aminoethyl)benzenesulfonyl fluoride hydrochloride (AEBSF, 0.1 mM, Sigma), CMK (25 μM, Enzo Life Sciences), cytochalasin B (5 μM, Sigma) or chymostatin (10 μg/mL, Sigma)) or recombinant furin (100 ng/mL, maximal dose tolerated by the neutrophils, Peprotech) 30 minutes prior to addition of stimuli. In some experiments cell surface levels of B cell activating factor (BAFF, Biolegend) was analyzed according to the same protocol as described above. Monocytes and pDCs were detected using antibodies to CD14 (BioLegend) and CD304 (Miltenyi Biotech), respectively.

BAFF = BAFF cell surface expression on neutrophils; settings: furin 100 ng/mL, 30 minutes before R848
Method: To determine which protease(s) were involved in the shedding of FcgRIIA, neutrophils were incubated with selective protease inhibitors prior to the addition of the TLR agonist. Cell surface levels of FcgRIIA (IV.3) was analyzed by flow cytometry upon R848 activation in the presence of a pan protease inhibitor or inhibitors of matrix metalloproteases (GM6001, 10 μM), cysteine proteases (E-64, 1 μM), serine proteases (AEBSF, 100 μM), neutrophil elastase (Elastase inhibitor IV, 25 μM), cathepsin G (chymostatin, 10 μg/mL) or furin (chloromethylketone (CMK, 25 μM). The experiment was repeated three (E-64), four (Pan Prot.inh., P<0.0001; AEBSF, P=0.0004; chymostatin; and CMK, P=0.0038), five (GM6001), and seven (NEi) times; combined results were compared using paired t test. […] Additionally, neutrophils were incubated with furin (100 ng/mL) or CMK 30 minutes prior to addition of R848. BAFF cell surface expression was analyzed by flow cytometry. […] Briefly, neutrophils were incubated with furin (100 ng/mL) in presence or absence of R848 and analyzed for FcgRIIA levels by flow cytometry. […] Finally, supernatant from activated neutrophils was fractionated and analyzed for capacity to induce shedding of monocyte FcgRIIA without, or with prior boiling of the fractions. […]

FcgRIIA on neutrophils [2] = test: SLE serum-mediated FcgRIIA shedding on healthy control neutrophils; settings: sera from 6 SLE patients, IV.3/FUN2
Method: As neutrophil and monocyte FcgRIIA shedding was highly correlated in SLE patients upon ex vivo analysis (correlation analysis for ex vivo monocyte and neutrophil (PMN) FcgRIIA shedding in SLE patients was performed; combined results were analyzed using Spearman's correlation (r=0.84, P<0.0001)), we asked whether this could be attributed to circulating proteases, likely neutrophil-derived. […] Consistent with a role of RNA ICs, serum-mediated FcgRIIA shedding was higher in patients with anti-Sm/RNP antibodies (sera from 6 SLE patients, pre-incubated with either RNase, a pan-protease inhibitor (prot.inh.), or cytochalasin B (Cyto B, 5 μM) were added to neutrophils from a healthy individual and FcgRIIA shedding analyzed by flow cytometry; combined results were compared using paired t test (RNase: P=0.012; prot.inh.: P=0.0002; Cyto B: P<0.0001)). […] Finally, SLE serum-mediated shedding of FcgRIIA from healthy control neutrophils strongly correlated with the FcgRIIA shedding observed upon ex vivo isolation of the SLE patient's neutrophils (correlation between ex vivo FcgRIIA shedding observed on SLE neutrophils with the shedding ability by the serum obtained from the same SLE patients (n=12); combined results were analyzed by Spearman's correlation (r=0.73, P=0.0096)). […]

neutrophils = test: ROS analysis in neutrophils (DHR123, OxyBURST); settings: flow cytometry and fluorimetry, cell impermeable ROS dye

## furin: recombinant furin, pro-protein convertase (Peprotech)
FcgRIIA on neutrophils [1]
  effect on R848 (TLR7/8)-mediated shedding of FcgRIIA on neutrophils: did not affect FcgRIIA shedding on neutrophils
BAFF
  BAFF cell surface expression: increased cell surface BAFF levels

## COc1cc(C(C)=O)ccc1O [apocynin]
FcgRIIA on neutrophils [1]
  effect on R848 (TLR7/8)-mediated shedding of FcgRIIA on neutrophils: completely restored cell surface levels of FcgRIIA

## C=C1[C@@H](C)[C@H]2[C@H](Cc3ccccc3)NC(=O)[C@]23OC(=O)/C=C/[C@H](O)CCC[C@@H](C)C/C=C/[C@H]3[C@@H]1O [cytochalasin B]
FcgRIIA on neutrophils [2]
  effect on SLE serum-mediated FcgRIIA shedding: almost completely abrogated serum-mediated FcgRIIA shedding

## PAM3CSK4
FcgRIIA on neutrophils [1]
  neutrophil cell surface expression of FcgRIIA after stimulus: reduced neutrophil cell surface levels of FcgRIIA, but not of FcgRIIIB

## CCCc1nc2c(N)nc3ccccc3c2s1 [CL075]
FcgRIIA on neutrophils [1]
  neutrophil cell surface expression of FcgRIIA after stimulus: reduced neutrophil cell surface levels of FcgRIIA, but not of FcgRIIIB

## C=CCn1c(=O)n([C@@H]2O[C@H](CO)[C@@H](O)[C@H]2O)c2nc(N)[nH]c(=O)c21 [Loxoribine]
FcgRIIA on neutrophils [1]
  neutrophil cell surface expression of FcgRIIA after stimulus: reduced neutrophil cell surface levels of FcgRIIA, but not of FcgRIIIB

## Cl.NCCc1ccc(S(=O)(=O)F)cc1 [AEBSF, 4-(2-Aminoethyl)benzenesulfonyl fluoride hydrochloride]
FcgRIIA on neutrophils [1]
  effect on R848 (TLR7/8)-mediated shedding of FcgRIIA on neutrophils: dependent on serine proteases

## [Cl-].c1ccc2c(c1)[I+]c1ccccc1-2 [DPI]
FcgRIIA on neutrophils [1]
  effect on R848 (TLR7/8)-mediated shedding of FcgRIIA on neutrophils: completely restored cell surface levels of FcgRIIA
FcgRIIA on neutrophils [1]; neutrophils activated with LPS or PAM3CSK4 in presence of DPI
  effect on LPS- or PAM3CSK4-mediated shedding of FcgRIIA: dependent on NADPH oxidase

## CCCCCCCCCCCCCC(=O)O[C@@H]1[C@@H](C)[C@@]2(O)[C@@H](C=C(CO)C[C@]3(O)C(=O)C(C)=C[C@@H]23)[C@@H]2C(C)(C)[C@]12OC(C)=O [PMA]
neutrophils
  cellular localization of ROS generation: induced both intracellular and extracellular ROS generation
